Structures are written as SMILES. Read-outs that look alike come from different tables or passages of the source.

One data set relates to AML cell lines. As to the kind of experiment: Combination of CNDAC with hypomethylating agents in AML cell lines. It counts as cell-based. Conditions: more apparent if cells are treated with hypomethylating agents first. The method, then:
Previous studies by the applicant have shown that in AML cell lines, the active metabolite of sapacitabine, CNDAC, is synergistic with hypomethylating agents and the synergy is more apparent if cells are treated with hypomethylating agents first. The present invention relates to the identification of new and previously undefined subgroups of AML patients for which treatment with an alternating regimen of sapacitabine and decitabine is particularly effective.

A further data set deals with colon cancer. Conditions: model of colon cancer; cited from earlier work.
Data set [1] concerns patients with a variety of cancers. Conditions: phase I, humans; cited from earlier work.
Data set [2] has as its system cell line that is resistant to cytarabine. Conditions: cited from earlier work.
Setting [3] is: Antecedent MDS/MPN No and WBC ≥10,000.
[4] abbreviates: Antecedent MDS/MPN Yes and WBC <10,000.
Where [5] appears, read: SWOG Not unfavourable and WBC <10,000.
Setting [6] is: SWOG Unfavourable and WBC ≥10,000.
Where [7] appears, read: all randomized patients (n=241 per arm).

From the text for AML patients: For 482 patients randomized to receive decitabine/sapacitabine (n=241) vs. decitabine only (n=241), randomization was stratified by the presence of antecedent MDS or MPN, peripheral white blood cell count (WBC <10,000 vs. ≥10,000) and bone marrow blast percentage (≥50% vs. <50%).

On to `N#C[C@H]1[C@H](O)[C@@H](CO)O[C@H]1n1ccc(N)nc1=O` [CNDAC, 2′-C-cyano-2′-deoxy-1-β-D-arabino-pentofuranosyl cytosine], for which the “interaction with hypomethylating agents” value with AML cell lines is on record as “synergistic”.
On to `Nc1ncn([C@H]2C[C@H](O)[C@@H](CO)O2)c(=O)n1` [Decitabine, 4-amino-1-(2-deoxy-β-D-erythro-pentofuranosyl)-1,3,5-triazin-2(1H)-one], for which the 1-year survival with AML patients (setting [3]) was 36.7%; with AML patients (setting [4]), 27.5%; with AML patients (Antecedent MDS/MPN: No), 35.5%; in the data set on AML patients (Antecedent MDS/MPN: Yes), 32.9%; with AML patients (setting [5]), 31.8%; in the data set on AML patients (setting [6]), 30.0%. Moreover, the 1-year survival in the data set with AML patients (SWOG category Not Unfavourable) amounted to 35.9%; in the data set with AML patients (SWOG category Unfavourable), 33.0%; in the data set with AML patients (patients with <10,000 WBC), 32.9%; in the data set with AML patients (patients with ≥10,000 WBC), 38.5%. Further, the CR rate with AML patients (setting [3]) is 18.4%; with AML patients (setting [4]) it was 2.5%; with AML patients (Antecedent MDS/MPN: No) it was 12.9%; in the data set with AML patients (Antecedent MDS/MPN: Yes), 5.7%; in the data set on AML patients (setting [5]) it was 5.7%; in the data set on AML patients (setting [6]), 0%. For the same compound, the CR rate worked out at 11.6% in the data set with AML patients (SWOG category Not Unfavourable), 9.6% with AML patients (SWOG category Unfavourable), 8.6% with AML patients (patients with <10,000 WBC) and 15.2% in the data set on AML patients (patients with ≥10,000 WBC). For the same compound, the Median overall survival is recorded as 5.5 months in the data set on AML patients (setting [3]); 4.9 months with AML patients (setting [4]); 6.7 months in the data set on AML patients (Antecedent MDS/MPN: No); 5.0 months with AML patients (Antecedent MDS/MPN: Yes); 5.6 months in the data set with AML patients (setting [5]); 3.0 months with AML patients (setting [6]). The Median overall survival in the data set with AML patients (SWOG category Not Unfavourable) turned out to be 5.7 months; in the data set with AML patients (SWOG category Unfavourable), 5.7 months; in the data set with AML patients (setting [7]), 5.7 months; in the data set on AML patients (patients with <10,000 WBC), 5.8 months; in the data set on AML patients (patients with ≥10,000 WBC), 5.5 months. Also, the CR median duration turned out to be 10.4 months with AML patients (Antecedent MDS/MPN: No), 7.1 months in the data set with AML patients (Antecedent MDS/MPN: Yes), 10.4 months in the data set on AML patients (patients with <10,000 WBC) and 10.1 months in the data set with AML patients (patients with ≥10,000 WBC). The “Patients aged 80 and over, median overall survival” value with AML patients (aged 80 and over, <10,000 WBC) is reported as 4.2 months. The “patients achieved CR” value in the data set with AML patients (setting [7]) was found to be 10.8%.
Turning to `CCCCCCCCCCCCCCCC(=O)Nc1ccn([C@@H]2O[C@H](CO)[C@@H](O)[C@@H]2C#N)c(=O)n1` [Sapacitabine, 1-(2-C-cyano-2-deoxy-β-D-arabino-pentofuranosyl)-N^4-palmitoyl cytosine], in the data set with colon cancer, the anticancer activity entry was “strong anticancer activity”; the “increasing survival and preventing spread of colon cancer metastases to the liver, compared with gemcitabine or 5-FU” value is recorded as “superior to either gemcitabine or 5-FU”. Moreover, in data set [1], the dose-limiting toxicity result is “myelosuppression” and the tolerability entry was “well tolerated”.
What is called IC50 is the concentration at which inhibition is half-maximal. Regarding `Nc1ccn([C@@H]2O[C@H](CO)[C@@H](O)[C@@H]2O)c(=O)n1` [cytarabine], the IC50 in data set [2] (after 5-azacitidine (dCK upregulation)) was 0.55 µM; in data set [2] (before 5-azacitidine), 12.5 µM.
